Values of other authors as cited in PMC12030253, “New Temporin A Analogues Modified in Positions 1 and 10—Synthesis and Biological Studies” (Pharmaceutics, 2025).
Like-named read-outs stand apart in the source and are kept apart here. Ends that are not written are not given here.

Experiments:
Set-up in all cases: method as in PMID 38931840
[1] = test system: Escherichia coli NBIMCC 8785; conditions: broth dilution, 0-320 µg/mL, 24 h; cited from earlier work
[2] = test system: Pseudomonas aeruginosa NBIMCC 3700; conditions: cited from earlier work; for Percentage-based inhibition compared to antibiotic, P. aeruginosa 3700: gentamicin taken as 100%; for Inhibition zone P. aeruginosa 3700: 20 µL per disk
[3] = test system: MCF-7 cells; conditions: cited from earlier work
[4] = test system: MDA-MB-231 cells; conditions: cited from earlier work
[5] = test system: Arthrobacter oxydans NBIMCC 9333; conditions: cited from earlier work; for Percentage-based inhibition compared to antibiotic, A. oxydans 9333: gentamicin taken as 100%; for Inhibition zone A. oxydans 9333: 20 µL per disk
[6] = test system: Bacillus subtilis NBIMCC 3562; conditions: cited from earlier work; for Percentage-based inhibition compared to antibiotic, B. subtilis 3562: chloramphenicol taken as 100%; for Inhibition zone B. subtilis 3562: 20 µL per disk
[7] = test system: Pseudomonas aeruginosa NBIMCC 3700; conditions: broth dilution, 0-320 µg/mL, 24 h; cited from earlier work
[8] = test system: Escherichia coli NBIMCC 8785; conditions: 20 µL per disk, cited from earlier work
[9] = test system: Candida albicans NBIMCC 74; conditions: broth dilution, 0-320 µg/mL, 24 h; cited from earlier work
[10] = test system: Arthrobacter oxydans NBIMCC 9333; conditions: broth dilution, 0-320 µg/mL, 24 h; cited from earlier work
[11] = test system: Bacillus subtilis NBIMCC 3562; conditions: broth dilution, 0-320 µg/mL, 24 h; cited from earlier work
[12] = test system: MCF-12F cells; conditions: MTT, 72 h, non-tumorigenic cells; read-out: Mean IC50 ± SD MCF-12F; cited from earlier work
[13] = test system: BALB 3T3 cells; conditions: cited from earlier work; for CC50: BALB 3T3 cells, NRU

**Q.** With “FLPLIGRVL-S-GILNH2 (FLPLIGRVLSGIL-NH2) [DTA, parent peptide Temporin A, C-terminal amide]” as the substance, how does the “MIC E. coli 8785” value [1] read?
**A.** 320 µg/mL

**Q.** What about the “Percentage-based inhibition compared to antibiotic, P. aeruginosa 3700” value ([2]; 1.4 mg/mL) of the same substance?
**A.** 45.9%

**Q.** What about the “Percentage-based inhibition compared to antibiotic, P. aeruginosa 3700” value ([2]; 10 mg/mL) of the same substance?
**A.** 54.7%

**Q.** And the “Inhibition zone P. aeruginosa 3700” value ([2]; peptide 1.4 mg/mL)?
**A.** 7.8 ± 0.3 mm

**Q.** And the “Inhibition zone P. aeruginosa 3700” value ([2]; peptide 10 mg/mL)?
**A.** 9.3 ± 0.6 mm

**Q.** And the IC50 ([3]; MTT, 72 h, read-out: Mean IC50 ± SD MCF-7)?
**A.** 73.2 ± 3.36 µM

**Q.** And the “Selectivity Index (SI) MCF-7” value ([3]; SI = IC50 (MCF-12F)/IC50 (MCF-7))?
**A.** 1.90

**Q.** And the IC50 ([4]; MTT, 72 h, read-out: Mean IC50 ± SD MDA-MB-231)?
**A.** 115 ± 4.04 µM

**Q.** And the “Selectivity Index (SI) MDA-MB-231” value ([4]; SI = IC50 (MCF-12F)/IC50 (MDA-MB-231))?
**A.** 1.20

**Q.** What about the “Percentage-based inhibition compared to antibiotic, A. oxydans 9333” value ([5]; 1.4 mg/mL) of the same substance?
**A.** 37.8%

**Q.** And the “Percentage-based inhibition compared to antibiotic, A. oxydans 9333” value ([5]; 10 mg/mL)?
**A.** 53.9%

**Q.** What about the “Inhibition zone A. oxydans 9333” value ([5]; peptide 1.4 mg/mL) of the same substance?
**A.** 6.8 ± 0.3 mm

**Q.** What about the “Inhibition zone A. oxydans 9333” value ([5]; peptide 10 mg/mL) of the same substance?
**A.** 9.7 ± 0.6 mm

**Q.** And the “Percentage-based inhibition compared to antibiotic, B. subtilis 3562” value ([6]; 1.4 mg/mL)?
**A.** 33.8%

**Q.** And the “Percentage-based inhibition compared to antibiotic, B. subtilis 3562” value ([6]; 10 mg/mL)?
**A.** 33.8%

**Q.** And the “Inhibition zone B. subtilis 3562” value ([6]; peptide 1.4 mg/mL)?
**A.** 8.8 ± 0.3 mm

**Q.** And the “Inhibition zone B. subtilis 3562” value ([6]; peptide 10 mg/mL)?
**A.** 8.8 ± 0.8 mm

**Q.** And the “MIC P. aeruginosa 3700” value [7]?
**A.** 320 µg/mL

**Q.** And the “Inhibition zone E. coli 8785” value ([8]; peptide 1.4 mg/mL)?
**A.** 0 mm

**Q.** And the “Inhibition zone E. coli 8785” value ([8]; peptide 10 mg/mL)?
**A.** 0 mm

**Q.** And the “MIC C. albicans 74” value [9]?
**A.** 320 µg/mL

**Q.** And the “MIC A. oxydans 9333” value [10]?
**A.** 80 µg/mL

**Q.** What about the “MIC B. subtilis 3562” value [11] of the same substance?
**A.** 80 µg/mL

**Q.** What about the IC50 [12] of the same substance?
**A.** 139 ± 8.36 µM

**Q.** What about the CC50 ([13]; irradiated 2.4 J/cm^2, read-out: Mean CC50 ± SD +Irr) of the same substance?
**A.** 105 ± 4.88 µM

**Q.** What about the CC50 ([13]; without irradiation, read-out: Mean CC50 ± SD −Irr) of the same substance?
**A.** 106 ± 4.18 µM

**Q.** And the “PIF (Photo-Irritation Factor)” value ([13]; PIF < 2 not phototoxic)?
**A.** 1.01
